Experimental data as given in US12697326B2, “Methods of treating hepatic encephalopathy” (SALIX PHARMACEUTICALS, INC., priority 2008, dated 2026).

Test system: breakthrough HE episode in subjects with hepatic encephalopathy (HE)
Assay: Time to first breakthrough (overt) HE episode, first study, rifaximin vs placebo
Type: in vivo, human
Source text: An increase in the Conn score of greater than or equal to grade 2 was considered as a breakthrough HE episode.
An efficacy endpoint was the time to first breakthrough overt HE episode. A breakthrough overt HE episode was defined as an increase of Conn score to Grade ≥2 (e.g., 0) or 1 to ≥2) or an increase in Conn and asterixis score of 1 grade each for those subjects who entered the study with a Conn score of 0. Time to breakthrough overt HE episode was the duration from time of first dose of study drug to the first breakthrough overt HE episode. […] Subjects who terminated early for reasons other than breakthrough overt HE were contacted at 6 months from randomization to determine if subjects had experienced a breakthrough overt HE episode or other outcome (e.g., mortality status); and, if the subject had no breakthrough overt HE event prior to contact, he/she was censored at the time of contact. […] Subjects in the study had ≥2 episodes of overt HE equivalent to Conn score ≥2 within 6 months prior to screening (i.e., subjects had documented recurrent, overt HE). At the baseline assessment, subjects were in remission with a Conn score of 0 or 1. A breakthrough overt HE episode, as defined above, was a marked deterioration in neurological function.
Presented herein are the results of the first study and second study. […] The primary efficacy endpoint was the time to breakthrough overt HE. Breakthrough overt HE was defined as an increase of Conn score to Grade ≥2 (e.g., 0 or 1 to ≥2) or an increase in Conn and asterixis score of 1 grade each for those subjects who entered the study with a Conn score of 0. Subjects discontinued from the study at the time of breakthrough overt HE episode. After participation in the first study, subjects had the option to enroll in the open-label, treatment-extension study (the second study).
FIG. 1 illustrates Kaplan-Meier estimates of time to first breakthrough overt HE episode by treatment group in the ITT population. Table 18 presents Kaplan-Meier estimates of the proportions of subjects who experienced breakthrough overt HE over the course of the Treatment Period and results of statistical analyses. […] Subjects who terminated early for reasons other than breakthrough overt HE (eg, liver transplant, AE, subject request) were contacted at 6 months from date of randomization to determine if subjects had experienced a breakthrough overt HE episode or other outcome (e.g., mortality status). Subjects without breakthrough overt HE were censored at the time of contact or death, whichever was earlier.

[1] = breakthrough HE episode by baseline Conn score level, 550 mg BID, N = 93, Days >= 168
[2] = breakthrough HE episode by baseline Conn score level; 550 mg BID; N = 93; Days [0-28)
[3] = breakthrough HE episode by baseline Conn score level; 550 mg BID; N = 93; Days [28-56)
[4] = breakthrough HE episode by baseline Conn score level; 550 mg BID; N = 93; Days [56-84)
[5] = breakthrough HE episode by baseline Conn score level; 550 mg BID; N = 93; Days [84-140)
[6] = breakthrough HE episode by baseline Conn score level; 550 mg BID; N = 93; Days [140-168)
[7] = breakthrough HE episode by baseline MELD score level, 550 mg BID, N = 11, Days >=168
[8] = breakthrough HE episode by baseline MELD score level; 550 mg BID; N = 11; Days [0-28)
[9] = breakthrough HE episode by baseline MELD score level; 550 mg BID; N = 11; Days [28-56)
[10] = breakthrough HE episode by baseline MELD score level; 550 mg BID; N = 11; Days [56-84)
[11] = breakthrough HE episode by baseline MELD score level; 550 mg BID; N = 11; Days [84-140)
[12] = breakthrough HE episode by baseline MELD score level; 550 mg BID; N = 11; Days [140-168)
[13] = breakthrough HE episode by baseline MELD score level, 550 mg BID, N = 34, Days >=168
[14] = breakthrough HE episode by baseline MELD score level; 550 mg BID; N = 34; Days [0-28)
[15] = breakthrough HE episode by baseline MELD score level; 550 mg BID; N = 34; Days [28-56)
[16] = breakthrough HE episode by baseline MELD score level; 550 mg BID; N = 34; Days [56-84)
[17] = breakthrough HE episode by baseline MELD score level; 550 mg BID; N = 34; Days [84-140)
[18] = breakthrough HE episode by baseline MELD score level; 550 mg BID; N = 34; Days [140-168)
[19] = breakthrough HE episode by baseline MELD score level, 550 mg BID, N = 85, Days >=168
[20] = breakthrough HE episode by baseline MELD score level; 550 mg BID; N = 85; Days [0-28)
[21] = breakthrough HE episode by baseline MELD score level; 550 mg BID; N = 85; Days [28-56)
[22] = breakthrough HE episode by baseline MELD score level; 550 mg BID; N = 85; Days [56-84)
[23] = breakthrough HE episode by baseline MELD score level; 550 mg BID; N = 85; Days [84-140)
[24] = breakthrough HE episode by baseline MELD score level; 550 mg BID; N = 85; Days [140-168)
[25] = breakthrough HE episode by prior lactulose use, 550 mg BID, N = 123, Days >=168

Structure (SMILES): CO[C@H]1/C=C/O[C@@]2(C)Oc3c(C)c(O)c4c(O)c(c5c(nc6cc(C)ccn65)c4c3C2=O)NC(=O)/C(C)=C\C=C\[C@H](C)[C@H](O)[C@@H](C)[C@@H](O)[C@@H](C)[C@H](OC(C)=O)[C@@H]1C [Rifaximin]
- Cumulative Occurrences of Events [1]: 19
- Occurrences of Events [1]: 0
- Survival [1]: 0.7924
- Occurrences of Events [2]: 11
- Survival [2]: 1.0000
- Occurrences of Events [3]: 3
- Survival [3]: 0.8817
- Occurrences of Events [4]: 1
- Survival [4]: 0.8491
- Occurrences of Events [5]: 3
- Survival [5]: 0.8380
- Occurrences of Events [6]: 1
- Survival [6]: 0.8042
- Cumulative Occurrences of Events [7]: 4
- Occurrences of Events [7]: 0
- Survival [7]: 0.6364
- Cumulative Occurrences of Events [8]: 1
- Occurrences of Events [8]: 1
- Survival [8]: 1.0000
- Cumulative Occurrences of Events [9]: 1
- Occurrences of Events [9]: 0
- Survival [9]: 0.9091
- Cumulative Occurrences of Events [10]: 4
- Occurrences of Events [10]: 3
- Survival [10]: 0.9091
- Cumulative Occurrences of Events [11]: 4
- Occurrences of Events [11]: 0
- Survival [11]: 0.6364
- Cumulative Occurrences of Events [12]: 4
- Occurrences of Events [12]: 0
- Survival [12]: 0.6364
- Cumulative Occurrences of Events [13]: 2
- Occurrences of Events [13]: 0
- Survival [13]: 0.9398
- Cumulative Occurrences of Events [14]: 1
- Occurrences of Events [14]: 1
- Survival [14]: 1.0000
- Cumulative Occurrences of Events [15]: 1
- Occurrences of Events [15]: 0
- Survival [15]: 0.9706
- Cumulative Occurrences of Events [16]: 1
- Occurrences of Events [16]: 0
- Survival [16]: 0.9706
- Cumulative Occurrences of Events [17]: 2
- Occurrences of Events [17]: 1
- Survival [17]: 0.9706
- Cumulative Occurrences of Events [18]: 2
- Occurrences of Events [18]: 0
- Survival [18]: 0.9398
- Cumulative Occurrences of Events [19]: 20
- Occurrences of Events [19]: 0
- Survival [19]: 0.7580
- Cumulative Occurrences of Events [20]: 8
- Occurrences of Events [20]: 8
- Survival [20]: 1.0000
- Cumulative Occurrences of Events [21]: 10
- Occurrences of Events [21]: 2
- Survival [21]: 0.9059
- Cumulative Occurrences of Events [22]: 13
- Occurrences of Events [22]: 3
- Survival [22]: 0.8822
- Cumulative Occurrences of Events [23]: 19
- Occurrences of Events [23]: 6
- Survival [23]: 0.8459
- Cumulative Occurrences of Events [24]: 20
- Occurrences of Events [24]: 1
- Survival [24]: 0.7713
- Cumulative Occurrences of Events [25]: 29
- Occurrences of Events [25]: 0
- Survival [25]: 0.7586
- Cumulative Occurrences of Events (breakthrough HE episode by prior lactulose use; 550 mg BID; N = 123; Days [0-28)): 12
